{"source": "ChEMBL document CHEMBL5247598", "about": "(Eur J Med Chem, 2022)", "key": {"HEK-293T [1]": {"system": "HEK-293T", "test": "Cytotoxicity against human HEK293T cells assessed as cell survival rate at 10 uM incubated for 48 hrs by MTT assay", "format": "toxicity, cell-based"}, "MCF7 [2]": {"system": "MCF7", "test": "Antiproliferative activity against human MCF7 cells assessed as reduction in cell viability incubated for 48 hrs by MTT assay", "format": "functional, cell-based", "settings": "MCF7, 48 h"}, "NCI/ADR-RES [3]": {"system": "NCI/ADR-RES", "test": "Antiproliferative activity against human multidrug resistant NCI-ADR-RES cells overexpressing P-gp assessed as reduction in cell viability incubated for 48 hrs by MTT assay", "format": "functional, cell-based"}, "[4]": {"test": "Cytotoxicity against human HEK293T cells assessed as reduction in cell viability incubated for 48 hrs by MTT assay", "format": "toxicity, cell-based, HEK-293T"}, "NCI/ADR-RES [5]": {"system": "NCI/ADR-RES", "test": "Reversal fold, ratio of doxorubicin IC50 to doxorubicin IC50 in presence of 10 uM test compound for reversal of P-gp-mediated multidrug resistance in human NCI-ADR-RES cells incubated for 48 hrs by MTT assay", "format": "functional"}, "MCF7 [6]": {"system": "MCF7", "test": "Antiproliferative activity against human MCF7 cells assessed as inhibition of cell growth at 50 uM incubated for 48 hrs by MTT assay", "format": "functional, cell-based"}, "NCI/ADR-RES [7]": {"system": "NCI/ADR-RES", "test": "Antiproliferative activity against human multidrug resistant NCI-ADR-RES cells assessed as inhibition of cell growth at 50 uM incubated for 48 hrs by MTT assay", "format": "functional, cell-based"}, "A549": {"system": "A549", "test": "Antiproliferative activity against human A549 cells assessed as inhibition of cell growth at 50 uM incubated for 48 hrs by MTT assay", "format": "functional, cell-based"}, "A549/TR": {"system": "A549/TR", "test": "Antiproliferative activity against human Taxol resistant A549 cells assessed as inhibition of cell growth at 50 uM incubated for 48 hrs by MTT assay", "format": "functional, cell-based"}, "HCT-8 [8]": {"system": "HCT-8", "test": "Antiproliferative activity against human HCT-8 cells assessed as inhibition of cell growth at 50 uM incubated for 48 hrs by MTT assay", "format": "functional, cell-based"}, "HCT-8 [9]": {"system": "HCT-8", "test": "Antiproliferative activity against human Taxol resistant HCT-8 cells assessed as inhibition of cell growth at 50 uM incubated for 48 hrs by MTT assay", "format": "functional, cell-based"}, "HEK-293T [10]": {"system": "HEK-293T", "test": "Cytotoxicity against human HEK293T cells assessed as inhibition of cell growth at 50 uM incubated for 48 hrs by MTT assay", "format": "toxicity, cell-based"}, "[11]": {"test": "Cytotoxicity against mouse MPC-5 cells assessed as inhibition of cell growth at 50 uM incubated for 48 hrs by MTT assay", "format": "toxicity, cell-based", "settings": "mpc-5, 48 h"}, "L02": {"system": "L02", "test": "Cytotoxicity against human L02 cells assessed as inhibition of cell growth at 50 uM incubated for 48 hrs by MTT assay", "format": "toxicity, cell-based", "settings": "l02, 48 h"}, "NCI/ADR-RES [12]": {"system": "NCI/ADR-RES", "test": "Reversal of P-gp-mediated multidrug resistance in human NCI-ADR-RES cells assessed as potentiation of doxorubicin-induced cytotoxicity incubated for 48 hrs by MTT assay", "format": "functional, cell-based"}, "P-gp": {"system": "P-gp", "test": "Therapeutic index, ratio of IC50 for cytotoxicity against human HEK293T cells to EC50 for reversal of P-gp-mediated multidrug resistance in human NCI-ADR-RES cells", "format": "toxicity, cell-based", "settings": "read-out: Ratio IC50/EC50"}, "NCI/ADR-RES [13]": {"system": "NCI/ADR-RES", "test": "Induction of apoptosis in human NCI-ADR-RES cells assessed as viable cells at 8 uM incubated for 48 hrs by Annexin V-FITC and DAPI staining based flow cytometry (Rvb= 97.9 %)", "format": "functional", "settings": "read-out: Activity"}, "NCI/ADR-RES [14]": {"system": "NCI/ADR-RES", "test": "Induction of apoptosis in human NCI-ADR-RES cells assessed as early apoptotic cells at 8 uM incubated for 48 hrs by Annexin V-FITC and DAPI staining based flow cytometry (Rvb= 0.89 %)", "format": "functional"}, "NCI/ADR-RES [15]": {"system": "NCI/ADR-RES", "test": "Induction of apoptosis in human NCI-ADR-RES cells assessed as late apoptotic cells at 8 uM incubated for 48 hrs by Annexin V-FITC and DAPI staining based flow cytometry (Rvb= 0.66 %)", "format": "functional"}, "NCI/ADR-RES [16]": {"system": "NCI/ADR-RES", "test": "Induction of apoptosis in human NCI-ADR-RES cells assessed as necrotic cells at 8 uM incubated for 48 hrs by Annexin V-FITC and DAPI staining based flow cytometry (Rvb= 0.55 %)", "format": "functional"}, "NCI/ADR-RES [17]": {"system": "NCI/ADR-RES", "test": "Induction of apoptosis in human NCI-ADR-RES cells assessed as necrotic cells at 8 uM incubated for 24 hrs by Annexin V-FITC and DAPI staining based flow cytometry (Rvb= 0.55 %)", "format": "functional"}, "NCI/ADR-RES [18]": {"system": "NCI/ADR-RES", "test": "Induction of apoptosis in human NCI-ADR-RES cells assessed as late apoptotic cells at 8 uM incubated for 24 hrs by Annexin V-FITC and DAPI staining based flow cytometry (Rvb= 0.66 %)", "format": "functional"}, "NCI/ADR-RES [19]": {"system": "NCI/ADR-RES", "test": "Induction of apoptosis in human NCI-ADR-RES cells assessed as early apoptotic cells at 8 uM incubated for 24 hrs by Annexin V-FITC and DAPI staining based flow cytometry (Rvb= 0.89 %)", "format": "functional"}, "NCI/ADR-RES [20]": {"system": "NCI/ADR-RES", "test": "Induction of apoptosis in human NCI-ADR-RES cells assessed as viable cells at 8 uM incubated for 24 hrs by Annexin V-FITC and DAPI staining based flow cytometry (Rvb= 97.9 %)", "format": "functional", "settings": "read-out: Activity"}, "NCI-ADR-RES [21]": {"system": "NCI-ADR-RES", "test": "Activation of PI3K/AKT signaling pathway in human NCI-ADR-RES cells assessed as increase in PI3K phosphorylation at 3 uM incubated for 24 to 48 hrs by Western blot analysis", "format": "cell-based", "settings": "filed as activator, time 24-48 hrs"}, "NCI-ADR-RES [22]": {"system": "NCI-ADR-RES", "test": "Activation of PI3K/AKT signaling pathway in human NCI-ADR-RES cells assessed as increase in AKT phosphorylation at 3 uM incubated for 24 to 48 hrs by Western blot analysis", "format": "cell-based", "settings": "filed as activator, time 24-48 hrs"}}, "note": "Calls of active or inactive are those of the source. The calls are words filed in the database; no cut-off is given here."}
{"smiles": "COc1cc2c(cc1OC)CN(CCc1ccc(NC(=O)c3cc(OC)c(OC)cc3NC(=O)c3cnc4ccccc4c3)cc1)CC2", "values": [{"measurement": "Activity", "setting": "HEK-293T [1]", "result": "Toxic"}, {"measurement": "IC50", "setting": "MCF7 [2]; read-out: IC50", "result": 8.11, "unit": "µM"}, {"measurement": "IC50", "setting": "NCI/ADR-RES [3]", "result": 98.5, "unit": "µM"}, {"measurement": "IC50 at 48 h", "setting": "[4]", "result": 5.22, "unit": "µM"}, {"measurement": "Ratio IC50", "setting": "NCI/ADR-RES [5]", "result": 47.2}, {"measurement": "Activity", "setting": "MCF7 [6]", "result": "Active"}, {"measurement": "Activity", "setting": "NCI/ADR-RES [7]", "result": "Active"}, {"measurement": "Activity", "setting": "A549", "result": "Active"}, {"measurement": "Activity", "setting": "A549/TR", "result": "Active"}, {"measurement": "Activity", "setting": "HCT-8 [8]", "result": "Active"}, {"measurement": "Activity", "setting": "HCT-8 [9]", "result": "Active"}, {"measurement": "Activity", "setting": "HEK-293T [10]", "result": "Toxic"}, {"measurement": "Activity", "setting": "[11]", "result": "Toxic"}, {"measurement": "Activity", "setting": "L02", "result": "Toxic"}, {"measurement": "EC50", "setting": "NCI/ADR-RES [12]", "result": 0.0187, "unit": "µM"}, {"measurement": "selectivity ratio", "setting": "P-gp", "result": 278}]}
{"smiles": "COc1ccc(CCN(C)CCCC(C#N)(c2ccc(OC)c(OC)c2)C(C)C)cc1OC", "note": "(configuration not stated)", "values": [{"measurement": "IC50", "setting": "MCF7 [2]", "result": 87.8, "unit": "µM"}, {"measurement": "IC50", "setting": "NCI/ADR-RES [3]", "result": "> 100", "unit": "µM"}, {"measurement": "IC50 at 48 h", "setting": "[4]", "result": 32, "unit": "µM"}, {"measurement": "Activity", "setting": "MCF7 [6]", "result": "inactive"}, {"measurement": "Activity", "setting": "NCI/ADR-RES [7]", "result": "inactive"}, {"measurement": "Activity", "setting": "A549", "result": "inactive"}, {"measurement": "Activity", "setting": "A549/TR", "result": "inactive"}, {"measurement": "Activity", "setting": "HCT-8 [8]", "result": "inactive"}, {"measurement": "Activity", "setting": "HCT-8 [9]", "result": "inactive"}, {"measurement": "EC50", "setting": "NCI/ADR-RES [12]", "result": 0.322, "unit": "µM"}]}
{"smiles": "COc1cccc2c1C(=O)c1c(O)c3c(c(O)c1C2=O)C[C@@](O)(C(=O)CO)C[C@@H]3O[C@H]1C[C@H](N)[C@H](O)[C@H](C)O1", "note": "[DOXORUBICIN]", "values": [{"measurement": "viability at 8 µM", "setting": "NCI/ADR-RES [13]", "result": 92.8, "unit": "%"}, {"measurement": "Activity", "setting": "NCI/ADR-RES [14]", "result": 1.78, "unit": "%"}, {"measurement": "Activity", "setting": "NCI/ADR-RES [15]", "result": 4.03, "unit": "%"}, {"measurement": "Activity", "setting": "NCI/ADR-RES [16]", "result": 1.47, "unit": "%"}, {"measurement": "IC50", "setting": "NCI/ADR-RES [3]", "result": 58.5, "unit": "µM"}, {"measurement": "Activity", "setting": "NCI/ADR-RES [17]", "result": 0.39, "unit": "%"}, {"measurement": "Activity", "setting": "NCI/ADR-RES [18]", "result": 0.74, "unit": "%"}, {"measurement": "Activity", "setting": "NCI/ADR-RES [19]", "result": 0.64, "unit": "%"}, {"measurement": "viability at 8 µM", "setting": "NCI/ADR-RES [20]", "result": 98.3, "unit": "%"}, {"measurement": "Activity", "setting": "NCI-ADR-RES [21]", "result": "Active"}, {"measurement": "Activity", "setting": "NCI-ADR-RES [22]", "result": "Active"}]}
